Results on 2 compounds are retold here after patent US7429291B2, “Print ink containing a plurality of fluorescent coloring materials and inkjet recording method” (Canon Kabushiki Kaisha, priority 2003, dated 2008).

Data set [1] is described as follows: Light absorption spectrum of coloring material. Type of data set: physicochemical. The procedure: Next, the present invention will be described more concretely with reference to the examples and the reference examples. Here, measured values obtained with pure-water diluents of coloring materials were used for an absorption wavelength region, a maximum absorption wavelength region, and a fluorescence wavelength region. Using an absorption spectrometer, absorption wavelengths were measured.
A diluent was prepared such that the absorbance thereof was in the range of 0.5 to 0.7. A higher region from a base line as an absorption peak of the coloring material was defined as an absorption wavelength region, and the peak value was defined as a maximum absorption wavelength region. In addition, for fluorescence wavelengths, the measurement conditions were defined such that the fluorescence intensities would not exceed the measurement threshold value. Then, the measurement of fluorescence wavelengths was performed by using the diluent used in the measurement of absorbance and by fixing the excitation wavelengths of the first and second coloring materials at predetermined wavelengths. A region higher than the base line was defined as a fluorescence emission wavelength region.
The absorption wavelength regions of the first and second coloring materials were measured using the spectrophotometer U-3200, manufactured by Hitachi Ltd., after the sample was diluted with pure water 100,000 fold. The absorption wavelength region of the first coloring material ranged from 450 to 620 nm both inclusive, and the maximum absorption wavelength thereof was 565 nm. In addition, the absorption wavelength region of the second coloring material ranged from 300 to 450 nm both inclusive, and the maximum absorption wavelength thereof was 372 nm.

Data set [2] can be described thus: Fluorescence emission and excitation spectra of coloring material in evaporated ink (FP-750). Type of data set: physicochemical. Particulars: excitation at 254 nm. From the text: Hereinafter, the print ink of the present invention will be described with reference to the drawings. Unless noted as a recorded image or a printed matter, the results are with an evaporated ink in which water was removed by evaporation and coloring materials are dispersed in an organic solvent. The print ink according to each embodiment of the present invention contains a first fluorescent coloring material that emits fluorescence of a predetermined wavelength that is used for measurement or determination, with excitation at a predetermined excitation wavelength, a second fluorescent coloring material that emits fluorescence with excitation at the same excitation wavelength, and a liquid medium for solving or dispersing these materials therein.
Aspect 1 is characterized in that the fluorescence emission wavelength region of the second fluorescent coloring material covers at least the peak wavelength range of the excitation spectrum of the first fluorescent coloring material measured for emission at 600 nm (see FIG. 2) and/or the absorption wavelengths in the visible region of the first fluorescent coloring material (see the bottom of FIG. 6). […] Therefore, in FIG. 2, when the predetermined fluorescence wavelength of AR52 is 600 nm (the predetermined excitation wavelength: 254 nm), the peak wavelength range thereof is from 430 nm to 600 nm both inclusive. […]

Where [3] appears, read: absorption spectrum of the figures, normal ink.

Turning to `O=C([O-])c1ccccc1-c1c2ccc(=O)cc-2oc2cc([O-])ccc12.[Na+].[Na+]` [AY73, C.I. Acid Yellow 73], in data set [1] (setting [3]), the “absorption band in visible region” value is listed as not above 525 nm and the “absorption peak wavelength in visible region” value was 490 nm. In addition, the “fluorescence emission peak wavelength” value in data set [2] is reported as 530 nm.

On to `CCN(CC)c1ccc2c(-c3ccc(S(=O)(=O)[O-])cc3S(=O)(=O)[O-])c3ccc(=[N+](CC)CC)cc-3oc2c1.[Na+]` [C.I. Acid Red 52], for which the maximum absorption wavelength in data set [1] (Example 1, diluted with pure water 100,000 fold, spectrophotometer U-3200) is 565 nm. Moreover, the “absorption peak wavelength in visible region” value in data set [1] (setting [3]) turned out to be 565 nm. Besides, the “fluorescence emission peak wavelength” value in data set [2] was 600 nm.
